Assay results as given in patent US20100137313A1 (ASTRAZENECA AB, priority 2008, published 2010).

Target: S. pneumoniae Topoisomerase IV ATPase (ParE) (Streptococcus pneumoniae serotype 4, UniProt Q59961)
Assay: S. pneumoniae Topoisomerase IV ATPase inhibition
Type: biochemical
Conditions: values marked * are an average of two or more data points, read-out: % Inh (13 μM) of S. pneumoniae Topoisomerase IV ATPase
Outline: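 S. pneumoniae ParE (1.25 nM) ATPase with 160 μM ATP and 5 μg/ml sheared DNA in pH 8.0 Tris, Mg2+, DTT, Brij-35; phosphate detected by malachite green/molybdate at 650 nm. Normalised to 2% DMSO (0%) and 20 μM EDTA (100%); IC50 from 10 concentrations.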

S. pneumoniae Topoisomerase IV ATPase (ParE), sequence (Q59961 whole entry): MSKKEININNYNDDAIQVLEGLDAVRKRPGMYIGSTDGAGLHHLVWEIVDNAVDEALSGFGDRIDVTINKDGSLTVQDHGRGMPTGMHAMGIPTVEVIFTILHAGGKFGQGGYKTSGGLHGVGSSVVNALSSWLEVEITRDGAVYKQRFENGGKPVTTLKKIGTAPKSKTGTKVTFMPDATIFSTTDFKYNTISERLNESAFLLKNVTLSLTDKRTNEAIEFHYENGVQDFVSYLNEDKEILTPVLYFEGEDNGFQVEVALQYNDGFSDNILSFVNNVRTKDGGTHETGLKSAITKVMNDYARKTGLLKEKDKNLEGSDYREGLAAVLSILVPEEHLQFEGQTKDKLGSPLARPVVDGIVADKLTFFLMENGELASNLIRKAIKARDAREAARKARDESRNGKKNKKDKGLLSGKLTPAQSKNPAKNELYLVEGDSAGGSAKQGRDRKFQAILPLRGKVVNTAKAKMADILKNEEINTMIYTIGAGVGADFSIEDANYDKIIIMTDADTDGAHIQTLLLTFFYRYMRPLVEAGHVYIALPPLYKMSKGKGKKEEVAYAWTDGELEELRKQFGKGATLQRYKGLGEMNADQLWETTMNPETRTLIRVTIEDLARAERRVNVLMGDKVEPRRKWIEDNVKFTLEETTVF

Row | Compound | inhibition at 13 µM
1 | CN(C)CCCNc1nc(Nc2ccc(F)c(Cl)c2)ncc1-c1ccc(C(=O)O)cc1 [Example 216, 4-(2-[(3-chloro-4-fluorophenyl)amino]-4-{[3-(dimethylamino)propyl]amino}pyrimidin-5-yl)benzoic acid] | 96.3%
2 | CN(C)CCCNc1nc(Nc2ccc(F)c(Cl)c2)ncc1-c1ccc2sc(C(=O)O)cc2c1 [Example 217, 5-(2-(3-chloro-4-fluorophenylamino)-4-(3-(dimethylamino)propylamino)pyrimidin-5-yl)benzo[b] thiophene-2-carboxylic acid] | 82.4%
3 | CCCNc1nc(Nc2ccc(F)c(Cl)c2)ncc1-c1cncc(C(=O)O)c1 [Example 218, 5-[2-(3-Chloro-4-fluoro-phenylamino)-4-propylamino-pyrimidin-5-yl]-nicotinic acid] | 80.9%
4 | O=C(O)c1cncc(-c2cnc(Nc3ccc(F)c(Cl)c3)nc2NCCCN2CCCC2=O)c1 [Example 219, 5-{2-(3-Chloro-4-fluoro-phenylamino)-4-[3-(2-oxo-pyrrolidin-1-yl)-propylamino]-pyrimidin-5-yl}-nicotinic acid] | 79%
5 | CN(C)CCNc1nc(Nc2ccc(F)c(Cl)c2)ncc1-c1cncc(C(=O)O)c1 [Example 220, 5-[2-(3-Chloro-4-fluoro-phenylamino)-4-(2-dimethylamino-ethylamino)-pyrimidin-5-yl]-nicotinic acid] | 79%
6 | CC(=O)NCCNc1nc(Nc2ccc(F)c(Cl)c2)ncc1-c1cncc(C(=O)O)c1 [Example 221, 5-[4-(2-Acetylamino-ethylamino)-2-(3-chloro-4-fluoro-phenylamino)-pyrimidin-5-yl]-nicotinic acid] | 81%
7 | O=C(O)c1cncc(-c2cnc(Nc3ccc(F)c(Cl)c3)nc2NCc2ccccn2)c1 [Example 222, 5-{2-(3-Chloro-4-fluoro-phenylamino)-4-[(pyridin-2-ylmethyl)-amino]-pyrimidin-5-yl]-nicotinic acid] | 76.2%
8 | O=C(O)c1cncc(-c2cnc(Nc3ccc(F)c(Cl)c3)nc2NCc2cccnc2)c1 [Example 223, 5-{2-(3-Chloro-4-fluoro-phenylamino)-4-[(pyridin-3-ylmethyl)-amino]-pyrimidin-5-yl}-nicotinic acid] | 77.4%
9 | O=C(O)c1cncc(-c2cnc(Nc3ccc(F)c(Cl)c3)nc2NCc2ccncc2)c1 [Example 224, 5-{2-(3-Chloro-4-fluoro-phenylamino)-4-[(pyridin-4-ylmethyl)-amino]-pyrimidin-5-yl}-nicotinic acid] | 78.5%
10 | CC(C)(C)OC(=O)NCCNc1nc(Nc2ccc(F)c(Cl)c2)ncc1-c1cncc(C(=O)O)c1 [Example 225, 5-[4-(2-tert-Butoxycarbonylamino-ethylamino)-2-(3-chloro-4-fluoro-phenylamino)-pyrimidin-5-yl]-nicotinic acid] | 81.1%
11 | NC(=O)CCNc1nc(Nc2ccc(F)c(Cl)c2)ncc1-c1cncc(C(=O)O)c1 [Example 226, 5-[4-(2-Carbamoyl-ethylamino)-2-(3-chloro-4-fluoro-phenylamino)-pyrimidin-5-yl]-nicotinic acid] | 79.5%
12 | O=C(O)c1cncc(-c2cnc(Nc3ccc(F)c(Cl)c3)nc2NCCN2CCOCC2)c1 [Example 227, 5-[2-(3-Chloro-4-fluoro-phenylamino)-4-(2-morpholin-4-yl-ethylamino)-pyrimidin-5-yl]-nicotinic acid] | 79%
13 | O=C(O)c1cncc(-c2cnc(Nc3ccc(F)c(Cl)c3)nc2NCCc2ccccn2)c1 [Example 228, 5-[2-(3-Chloro-4-fluoro-phenylamino)-4-(2-pyridin-2-yl-ethylamino)-pyrimidin-5-yl]-nicotinic acid] | 78.5%
14 | O=C(O)c1cncc(-c2cnc(Nc3ccc(F)c(Cl)c3)nc2NCCc2cccnc2)c1 [Example 229, 5-[2-(3-Chloro-4-fluoro-phenylamino)-4-(2-pyridin-3-yl-ethylamino)-pyrimidin-5-yl]-nicotinic acid] | 85%
15 | O=C(O)c1cncc(-c2cnc(Nc3ccc(F)c(Cl)c3)nc2NCCc2ccncc2)c1 [Example 230, 5-[2-(3-Chloro-4-fluoro-phenylamino)-4-(2-pyridin-4-yl-ethylamino)-pyrimidin-5-yl]-nicotinic acid] | 79.6%
16 | O=C(O)c1cncc(-c2cnc(Nc3ccc(F)c(Cl)c3)nc2NCCN2CCS(=O)(=O)CC2)c1 [Example 231, 5-{2-(3-Chloro-4-fluoro-phenylamino)-4-[2-(1,1-dioxo-1λ^6-thiomorpholin-4-yl)-ethylamino]-pyrimidin-5-yl}-nicotinic acid] | 81.5%
17 | O=C(O)c1cncc(-c2cnc(Nc3ccc(F)c(Cl)c3)nc2NCCCN2CCS(=O)(=O)CC2)c1 [Example 232, 5-{2-(3-Chloro-4-fluoro-phenylamino)-4-[3-(1,1-dioxo-1λ^6-thiomorpholin-4-yl)-propylamino]-pyrimidin-5-yl}-nicotinic acid] | 81%

Row | Compound | inhibition at 13 µM
18 | O=C(O)c1cncc(-c2cnc(Nc3ccc(F)c(Cl)c3)nc2NCCCN2CCOCC2)c1 [Example 233, 5-[2-[(3-chloro-4-fluorophenyl)amino]-4-(3-morpholin-4-ylpropylamino)pyrimidin-5-yl]pyridine-3-carboxylic acid] | 75.4%
19 | COCCNc1nc(Nc2ccc(F)c(Cl)c2)ncc1-c1cncc(C(=O)O)c1 [Example 234, 5-[2-[(3-chloro-4-fluorophenyl)amino]-4-(2-methoxyethylamino)-pyrimidin-5-yl]pyridine-3-carboxylic acid] | 73.2%
20 | O=C(O)c1cncc(-c2cnc(Nc3ccc(F)c(Cl)c3)nc2NCC2CCCO2)c1 (stereo not drawn) [Example 235, 5-[2-[(3-chloro-4-fluorophenyl)amino]-4-(oxolan-2-ylmethylamino)pyrimidin-5-yl]pyridine-3-carboxylic acid] | 81.2%
21 | CC(C)OCCNc1nc(Nc2ccc(F)c(Cl)c2)ncc1-c1cncc(C(=O)O)c1 [Example 236, 5-[2-[(3-chloro-4-fluorophenyl)amino]-4-(2-propan-2-yloxyethyolamino)pyrimidin-5-yl]pyridine-3-carboxylic acid] | 73.6%
22 | O=C(O)c1cncc(-c2cnc(Nc3ccc(F)c(Cl)c3)nc2NCc2ccco2)c1 [Example 237, 5-[2-[(3-chloro-4-fluorophenyl)amino]-4-(furan-2-ylmethylamino)pyrimidin-5-yl]pyridine-3-carboxylic acid] | 85.4%
23 | O=C(O)CNc1nc(Nc2ccc(F)c(Cl)c2)ncc1-c1cncc(C(=O)O)c1 [Example 238, 5-[4-(carboxymethylamino)-2-[(3-chloro-4-fluorophenyl)amino]-pyrimidin-5-yl]pyridine-3-carboxylic acid] | 72.6%
24 | O=C(O)c1cncc(-c2cnc(Nc3ccc(F)c(Cl)c3)nc2NCCOc2ccccc2)c1 [Example 239, 5-[2-[(3-chloro-4-fluorophenyl)amino]-4-(2-phenoxyethylamino)-pyrimidin-5-yl]pyridine-3-carboxylic acid] | 85.1%
25 | C[C@@H](Nc1nc(Nc2ccc(F)c(Cl)c2)ncc1-c1cncc(C(=O)O)c1)C(=O)O [Example 240, 5-[2-[(3-chloro-4-fluorophenyl)amino]-4-[[(2R)-1-hydroxy-1-oxopropan-2-yl]amino]pyrimidin-5-yl]pyridine-3-carboxylic acid] | 45.8%
26 | O=C(O)c1cncc(-c2cnc(Nc3ccc(F)c(Cl)c3)nc2NCc2nc3ccccc3[nH]2)c1 [Example 241, 5-[4-(1H-benzimidazol-2-ylmethylamino)-2-[(3-chloro-4-fluorophenyl)amino]-pyrimidin-5-yl]pyridine-3-carboxylic acid] | 71.5%
27 | Cc1cnc(CNc2nc(Nc3ccc(F)c(Cl)c3)ncc2-c2cncc(C(=O)O)c2)cn1 [Example 242, 5-[2-[(3-chloro-4-fluorophenyl)amino]-4-[(5-methylpyrazin-2-yl)methylamino]pyrimidin-5-yl]pyridine-3-carboxylic acid] | 61.3%
28 | CC(C)Nc1nc(Nc2ccc(F)c(Cl)c2)ncc1-c1cncc(C(=O)O)c1 [Example 243, 5-[2-[(3-chloro-4-fluorophenyl)amino]-4-(propan-2-ylamino)pyrimidin-5-yl]pyridine-3-carboxylic acid] | 83.5%
29 | O=C(O)c1cncc(-c2cnc(Nc3ccc(F)c(Cl)c3)nc2N2CCC(O)CC2)c1 [Example 244, 5-[2-[(3-chloro-4-fluorophenyl)amino]-4-(4-hydroxypiperidin-1-yl)pyrimidin-5-yl]pyridine-3-carboxylic acid] | 76.3%
30 | O=C(O)c1cncc(-c2cnc(Nc3ccc(F)c(Cl)c3)nc2N2CCCC(CO)C2)c1 (stereo not drawn) [Example 245, 5-[2-[(3-chloro-4-fluorophenyl)amino]-4-[3-(hydroxymethyl)piper-idin-1-yl]pyrimidin-5-yl]pyridine-3-carboxylic acid] | 83.1%
31 | O=C(O)c1cncc(-c2cnc(Nc3ccc(F)c(Cl)c3)nc2N2CCC(N3CCOCC3)CC2)c1 [Example 246, 5-[2-[(3-chloro-4-fluorophenyl)amino]-4-(4-morpholin-4-ylpiperidin-1-yl)pyrimidin-5-yl]pyridine-3-carboxylic acid] | 74.9%
32 | CNC(=O)C1CCN(c2nc(Nc3ccc(F)c(Cl)c3)ncc2-c2cncc(C(=O)O)c2)CC1 [Example 247, 5-[2-[(3-chloro-4-fluoprophenyl)amino]-4-[4-(methylcarbamoyl)-piperidin-1-yl]pyrimidin-5-yl]pyridine-3-carboxylic acid] | 42.2%
33 | O=C(O)c1cncc(-c2cnc(Nc3ccc(F)c(Cl)c3)nc2N2CCC(F)CC2)c1 [Example 248, 5-[2-[(3-chloro-4-fluorophenyl)amino]-4-(4-fluoropiperidin-1-yl)pyrimidin-5-yl]pyridine-3-carboxylic acid] | 66.1%
